Data reported in patent US11591326B2, “Inhibitors of protein arginine methyltransferase 5 (PRMT5), pharmaceutical products thereof, and methods thereof” (PHARMABLOCK SCIENCES (NANJING), INC., priority 2018, dated 2023).
Read-outs that look alike come from different tables or passages of the source.

Legend:
MDA-MB-231 = assay: Breast cancer panel proliferation inhibition, MDA-MB-231; format: cell-based; details: Homo sapiens
Protocol: (§1) Inhibitory ability of compounds synthesized on the proliferation of three panels of cancer cell lines, including 5 breast cancer, 6 liver cancer, and 3 lung cancer cell lines were evaluated. Exponentially growing cells were seeded in the media of choice at various cell densities in 384-well plates with 20 ul per well and incubated overnight at 37° C., 5% CO2 incubator. Compounds were prepared as 10-point, 3-fold serial dilutions in DMSO, beginning at 6 mM. 1 μl of DMSO solutions from the compound stock plates were added to 99 ul of cell media (final top concentration of compound in the assay was 30 uM and the final concentration of DMSO was 0.5%). 20 μL of compound solutions in media were added to each well of plates with cells seeded. After adding compound solutions, assay plates were incubated for 8 and 12 days, respectively, at 37° C., 5% CO2. During this incubation period, cell media was changed every 4 days. After removing old media from cell plates, 40 ul of media with testing compounds dissolved, which were prepared by adding 1 ul of compound DMSO serial solutions to 199 ul of cell media, were added to the assay plates with the same layout as they were initially prepared. After 8 or 12 days, cell viability was measured using the CellTiter-Glo assay kit from Promega (Madison, Wis., USA) by quantitating the ATP present in the cell cultures. 20 μL of CellTiter-Glo reagent was added to each well of the cell plates. Luminescence was read after 10 minute of incubation with the Envision multiple plate reader from PerkinElmer (Waltham, Mass., USA). The concentrations of compounds inhibiting cell viability by 50% (IC50 values) were determined using a sigmoidal dose-response model (variable slopes, four parameters) in Prism 7 (La Jolla, Calif., USA).

Huh1 = assay: Liver cancer panel proliferation inhibition, Huh1; format: cell-based; details: Homo sapiens
Protocol: as §1

MHCC-97H = assay: Liver cancer panel proliferation inhibition, MHCC-97H; format: cell-based; details: Homo sapiens, MHCC97H
Protocol: as §1

HCC827 = assay: Lung cancer panel proliferation inhibition, HCC827; format: cell-based; details: Homo sapiens
Protocol: as §1

[1] = test system: Mantle Cell Lymphoma Z-138 cell; assay: Cell proliferation inhibition, Z-138 (CCK8); format: cell-based; details: Homo sapiens, Z-138, 96 h, Z-138, incubated 4 days
Text: Materials and Cell Lines: Z-138, U251, and MIA PaCa2 cells were purchased from ATCC (American Type Culture Collection, Manassas, Va.) and Chinese Academy of Science (Shanghai, China). Iscove's Modified Dulbecco's Medium (IMDM), Dulbecco's Modified Eagle Medium (DMEM), penicillin-streptomycin, heat inactivated fetal bovine serum (FBS), and horse serum was purchased from ThermoFisher, Waltham, Mass., USA. Corning 96- and 384-well cell culture plates were purchased from ThermoFisher, Waltham, Mass., USA. Cell-Titer Glo® was purchased from Promega Corporation, Madison, Wis., USA.
In order to evaluate the inhibitory ability of compounds synthesized on the proliferation of the Mantle Cell Lymphoma Z-138 cell, exponentially growing cells were seeded in the media of IMDM with 10% horse serum and 1% penicillin-streptomycin at a concentration of 30000 cells/ml in a 96-well plate with 100 ul per well and incubated overnight at 37° C., 5% CO2 incubator. Compounds were prepared as 10-point, 3-fold serial dilutions in DMSO, beginning at 6 mM. 1 μl of DMSO solutions from the compound stock plates were added to 99 ul of cell culture media (final top concentration of compound in the assay was 30 uM and the final concentration of DMSO was 0.5%). 100 μL of compound solutions in media were added to each well of Z-138 cell plates. After adding compound solutions, assay plates were incubated for 4 days at 37° C., 5% CO2. Cell viability was measured using the Cell Counting Kit-8 (CCK8) obtained from the Beyotime Biotehnology, Shanghai, China. 20 ul of CCK8 reagent was added to each well of the Z-138 assay plate which was incubated at 37° C. for 2 hours. O.D. at 450 nm was read with the FlexStation 3 microplate reader (Molecular Devices, Sunnyvale, Calif. 94089 USA). The concentrations of compounds inhibiting cell viability by 50% (IC50 values) were determined using a sigmoidal dose-response model (variable slopes, four parameters) in Prism 7 (La Jolla, Calif.).

[2] = Pharmacokinetic study in mouse; format: in vivo, Male CD-1 mice; details: male, CD-1, plasma; for plasma clearance / Vd: 2 mg/kg, Mouse PK (IV) 2 mpk; for plasma clearance: read-out: Clint (converted); for Vd: read-out: Vss; for AUC(0-t) / Cmax / Tmax / bioavailability / half-life: 10 mg/kg, Mouse PK (PO) 10 mpk; for half-life: read-out: T½ (converted)
Protocol: Male CD-1 mice (16-24 g; 6-8 weeks; purchased from Shanghai SLAC laboratory animal CO. LTD; n=18, with 3 per time point) were treated with a single dose of compounds being tested at 2 mg/kg by intravenous tail-vein injection and 10 mg/kg by oral gavage administration, with both doses formulated in 20% N,N-dimethylacetamide in water. Animals upon PO administration were fasted overnight and fed 4 hours after dosing. Animals upon IV administration were free access to food and water. The study was performed in accordance with the guidelines and standards of the Association for Assessment and Accreditation of Laboratory Animal Care (AAALAC International) and the National Institutes of Health.
The animals were anesthetized via isoflurane at the designated time points, and approximately 110 μL of blood sample was collected via retro-orbital puncture or cardiac puncture for stagger bleeding under the anesthesia with Isoflurane inhalation into EDTA-2K tubes. The blood samples were maintained in wet ice first and centrifuged to obtain plasma (2000 g, 4° C., 5 min) within 15 minutes post sampling. Plasma samples were stored at approximately −70° C. until analysis. For plasma samples not diluted, an aliquot of 20 μL sample was added with 200 μL IS (Propranolol, 100 ng/mL) in ACN. The mixture was vortexed for 10 min and centrifuged at 5800 rpm for 10 min. An aliquot of 0.5 μL supernatant was injected for LC-MS/MS analysis. For 10-fold diluted plasma samples, an aliquot of 2 μL sample was added with 18 μL blank diluted plasma, the dilution factor was 10. The followed operation was the same as no diluted plasma samples. Standard calibration curves were constructed by analyzing a series of control plasma aliquots containing Propranolol (100 ng/mL) as an internal standard and 1.0-3,000 ng/mL testing compounds. Compound concentrations were determine with UPLC-MS/MS-33 (Triple Quad™ 6500 Plus).

[3] = 192 h, MDA-MB-231, 8 days, read-out: IC50 (μM) 8 days
[4] = 288 h, MDA-MB-231, 12 days, read-out: IC50 (μM) 12 days
[5] = HuH-1, 192 h, Huh1, 8 days, read-out: IC50 (μM) 8 days
[6] = HuH-1, 288 h, Huh1, 12 days, read-out: IC50 (μM) 12 days
[7] = 192 h, 8 days, read-out: IC50 (μM) 8 days
[8] = 288 h, 12 days, read-out: IC50 (μM) 12 days
[9] = 192 h, HCC827, 8 days, read-out: IC50 (μM) 8 days
[10] = 288 h, HCC827, 12 days, read-out: IC50 (μM) 12 days

| IC50 (MDA-MB-231; [3]) [µM] | IC50 (MDA-MB-231; [4]) [µM] | IC50 (Huh1; [5]) [µM] | IC50 (Huh1; [6]) [µM] | IC50 (MHCC-97H; [7]) [µM] | IC50 (MHCC-97H; [8]) [µM] | IC50 (HCC827; [9]) [µM] | IC50 (HCC827; [10]) [µM] | IC50 [1] [µM] | plasma clearance [2] [mL/min/kg] | Vd [2] [L/kg] | AUC(0-t) [2] [ng·h/mL] | Cmax [2] [ng/mL] | Tmax [2] [h] | bioavailability [2] [%] | half-life [2] [h] | SMILES |
| --- | --- | --- | --- | --- | --- | --- | --- | --- | --- | --- | --- | --- | --- | --- | --- | --- |
| 0.17 | 0.064 | 0.54 | 0.075 | 0.023 | 0.024 | 0.16 | 0.089 | 0.014 | 50.7 | 2.25 | 2720 | 3080 | 0.25 | 83 | 2.86 | CC(=O)N1CCC(Nc2ccc3c(c2)C(=O)N(C[C@H](O)CN2CCc4ccccc4C2)CCO3)CC1 [Compound 52a, (R)-7-((1-acetylpiperidin-4-yl)amino)-4-(3-(3,4-dihydroisoquinolin-2(1H)-yl)-2-hydroxypropyl)-3,4-dihydrobenzo[f][1,4]oxazepin-5(2H)-one] |
| 0.49 | 0.075 | 0.44 | 0.041 | 0.02 | 0.029 | 0.19 | 0.11 | 0.014 | 35.7 | 2.48 | 3410 | 3580 | 0.25 | 73.3 | 1.22 | CC(=O)N1CCC(Nc2ccc3c(c2)C(=O)N(C[C@H](O)CN2CCc4ccccc4C2)CC3)CC1 [Compound 24a, (R)-7-((1-acetylpiperidin-4-yl)amino)-2-(3-(3,4-dihydroisoquinolin-2(1H)-yl)-2-hydroxypropyl)-3,4-dihydroisoquinolin-1(2H)-one] |
| 0.7 | 0.096 | 1.92 | 0.085 | 0.089 | 0.086 | 0.34 | 0.5 | 0.07 | 44.7 | 1.48 | 2420 | 761 | 2 | 64.9 | 0.798 | CC(=O)N1CCC(Nc2cc(C(=O)NC[C@H](O)CN3CCc4ccccc4C3)ncn2)CC1 [Compound C3, reference compound] |
